Data published in US20130252903A1, “COMPOSITIONS FOR REDUCING OXIDATIVE STRESS AND USES THEREOF” (Universitaetsklinikum Muenster, priority 2007, published 2013).
Square brackets hold non-standard residues; d marks the D form. Ends that are not written are not given here.

Legend:
human dermal fibroblasts = experiment: UVA-induced intracellular amplification of ROS (dihydrorhodamine 123, flow cytometry); assay type: cell-based; details: for effect on UVA-induced intracellular amplification of ROS compared with vitamin C (ascorbate): peptide 10^-8M vs vitamin C 10^-2M, FIG. 2; for effect on UVA-induced intracellular amplification of ROS ("oxidative stress"): peptide 10^-8 M, 24 h pre-incubation, UVA 10 J/cm^2, human dermal fibroblasts, FIG. 1, p<0.001
Procedure: The modulating effect of the tripeptides Lys-Pro-Val (KPV), Lys-D-Pro-Thr (KPT) and Thyrotropin Releasing Hormones (TRH, Protirelin, Thyoliberin, pGlu-His-Pro) was examined on human dermal fibroblasts that were seeded into 3.5 cm^2 tissue culture dishes in a density of 150,000 per dish in […] medium. Two days after seeding the cells, the medium supplemented with 10% foetal calf serum, 1% L-glutamine and 1% penicillin/streptomycin was exchanged with serum-free RPMI medium and pre-incubated for 24 hours with KPV, […] Subsequently, the cells were exposed to a physiological dose of UVA radiation (10 J/cm^2). Immediately after radiation, the cells were incubated with 5 μM dihydrorhodamine 123 plus 5 mM glucose in phosphate buffer (PBS) for 30 minutes. Subsequently, the cells were trypsinized, resuspended in PBS with 5 mM glucose and analyzed by means of flow cytometry (FACS, FACSCalibur with 488 nm argon laser). The above dihydrorhodamine probe is oxidized in the presence of intracellular ROS into green fluorescent […] and, thus, can be measured fluorometrically. A total of 10×10^3 cells per probe were analyzed and evaluated using CELL-QUEST software. The median of the FL-1 channel was used as parameter for the intracellular ROS amount, since it represents the maximum number of cells with the highest fluorescence. Duplicate and triplicate analyses were carried out and all assays were reproduced three times in independent experiments.

B16.F1 melanoma cells = experiment: Extracellular melanin accumulation (in situ melanin assay, optical density 405 nm); assay type: cell-based, mouse; details: 72 hrs; for melanotropic effect (extracellular melanin accumulation): peptides at 10^-6, 10^-8 and 10^-10 M, FIG. 3
Source text: It is also preferred that the compounds of the invention have no or merely a negligible melanotropic effect. “Melanotropic effect” means that the compound induces the extracellular melanin accumulation in a cell assay in accordance with the method described in the appended example 2 and/or in accordance with the method described in Siegrist and Eberle (Anal. Biochem. 1986; 159; 191-197), title “In situ melanin assay for MSH using mouse B16 melanoma cells in culture”. “No or negligible” means that the mean melanin accumulation which is induced by the compounds of the invention exceeds the mean melanin accumulation which is induced by at least one of the two compounds as exemplified in Example 2 by not more than about 40%, 30%, 20%, 15%, 10%, 5%, 2.5%, 2% or 1%, preferably under conditions which equate to or are identical with those set out in Example 2. The skilled person is able to justify which assay conditions/assays equate with the assay/conditions exemplified in the appended examples. The melanin accumulation evaluated in Example 2 is depicted in FIG. 3. The effect of the compounds of the invention on extracellular melanin accumulation is thus determinable by the methods disclosed herein.
To exclude a potential melanotropic effect of KPT and KPV, 2500 B16.F1 melanoma cells were seeded out on 96-well tissue culture plates in quintuplicate at a density of 2500 cells/well in regular culture medium. On the next day routine medium was changed to medium containing the above peptides at 10^−6, 10^−8 and 10^−10 M vs. medium containing the superpotent MSH analogue NDP-α-MSH (10^−8 M). The latter served as positive control while cells without any other stimulus served as negative control. Cells were then cultured for 72 hrs followed by photometric measurement of the optical density (wavelength 405 nm) of each well. This procedure measures the amount of extracellular melanin produced by the cells according to the well-established and described methodology by Siegrist & Eberle, Anal. Biochem. 1986; 159: 191-197.

Compound: NC(=O)[C@@H]1CCCN1C(=O)[C@H](Cc1c[nH]cn1)NC(=O)[C@@H]1CCC(=O)N1 [TRH, L-Pyroglutamyl-L-histidyl-L-prolinamid]
- antioxidative protective effects in human dermal fibroblasts (summary statement) (human dermal fibroblasts): show antioxidative protective effects
- effect on UVA-induced intracellular amplification of ROS compared with vitamin C (ascorbate) (human dermal fibroblasts): comparable with that of vitamin C
- effect on UVA-induced intracellular amplification of ROS ("oxidative stress") (human dermal fibroblasts): suppressed UVA-induced intracellular amplification of ROS

Compound: Lys-Pro-Val [KPV]
- antioxidative protective effects in human dermal fibroblasts (summary statement) (human dermal fibroblasts): show antioxidative protective effects
- effect on UVA-induced intracellular amplification of ROS ("oxidative stress") (human dermal fibroblasts): suppressed UVA-induced intracellular amplification of ROS
- melanotropic effect (extracellular melanin accumulation) (B16.F1 melanoma cells): did not have any melanotropic effect

Compound: Lys-[dP]-Thr [KPT]
- antioxidative protective effects in human dermal fibroblasts (summary statement) (human dermal fibroblasts): show antioxidative protective effects
- effect on UVA-induced intracellular amplification of ROS compared with vitamin C (ascorbate) (human dermal fibroblasts): comparable with that of vitamin C
- effect on UVA-induced intracellular amplification of ROS ("oxidative stress") (human dermal fibroblasts): suppressed UVA-induced intracellular amplification of ROS
- melanotropic effect (extracellular melanin accumulation) (B16.F1 melanoma cells): did not have any melanotropic effect

Compound: NDP-α-MSH [reference compound]
- melanotropic effect (extracellular melanin accumulation), positive control (B16.F1 melanoma cells; 10^-8 M): p<0.001 vs. control
